Entries after “also recorded” stand apart in the source; their conditions may differ.
Experiments:
[1] = test system: oxazolone induced hypersensitivity; assay: Ear swelling response to oxazolone (delayed-type hypersensitivity); type: in vivo, mice; settings: pentamidine isethionate (heading), epicutaneous at time of oxazolone challenge, FIG. 5
Description: All groups were sensitized with 25 μl of 2.0% oxazolone on day 0 on the shaved dorsal surface of the back. On day 5, each group was treated with 10 μl of pentamidine on each side of the right ear immediately prior to challenge with 10 μl of 0.5% oxazolone on each side of the right ear. The left ear was treated at same time with the oxazolone vehicle (4:1 acetone:olive oil) and in the same manner as the challenged ear. Ear thickness was determined before, 24 and 48 hours after challenge. The concentration of pentamidine for each group was as follows:
Group 1--80 μg/ear pentamidine
Group 2--40 μg/ear pentamidine
Group 3--20 μg/ear pentamidine
Group 4--10 μg/ear pentamidine
Group 5--5 μg/ear pentamidine
Group 6--no treatment (oxazolone positive control)

Female B6C3F1 mice = assay: Endotoxemia: hypothermia and survival after LPS; type: in vivo
Description: Female B6C3F1 mice weighing approximately 24 g were dosed with pentamidine (15 mg/kg.; i.v.) at both 24 hours and 1 hour prior to LPS administration (50 mg/kg; i.p.). Temperature response indices (TRI) were determined for the period between time zero and +12 hours in groups of 5 mice. […] Animals used for body temperature measurements were treated identically and on the same day as those animals for which survival was measured, although the survival of these animals is not included in the Table below. Survival data shown in Table 3 is following 24 hours of observation.

membrane IL-1 = assay: Effect on membrane IL-1 (mIL-1 bioassay); type: cell-based, rat; settings: LPS 5 ng/ml, 24 h, FIG. 4
Description: Membrane IL-1 was assayed as previously described (E. A. Kurt-Jones et al, Proc. Natl. Acad. Sci. USA, 82, 1204 (1985)). 10^5 cells were cultured in media and 10% FCS with or without pentamidine at varying concentrations and LPS at 5 ng/ml for 24 hours and then fixed to the bottom of the 96 well plates with paraformaldehyde. The IL-1 bioassay was then performed as described in Example 1.

IL-6 = IL-6 secretion by human macrophages; type: cell-based; settings: Macrophage, 10^-5 M, read-out: Suppression of IL-6 secretion
Description: (§1) It has also been observed that pentamidine (10^-5 M) blocks the secretion of tumor necrosis factor in rat macrophages (42 units/ml - pentamidine vs. 82 units/ml - control), as well as tumor necrosis factor and IL-6 in human macrophages, where at a concentration of 10^-5 M pentamidine, tumor necrosis factor and IL-6 secretion are suppressed >50%. These additional cytokines are also very influential mediators in inflammatory diseases.

alveolar macrophage = assay: Alveolar macrophage viability following 24 hour exposure; type: cell-based; settings: concentrations ≤10^-5 M; normal rat macrophages
Description: Dose response studies were performed to determine the molar concentration at which pentamidine reduced viability in normal rat macrophages. […] This blockage was shown using an enzyme linked immunosorbant assay with specific antibody to IL-1β.
Alveolar macrophage viability was assessed by incubating the cells in RPMI 1640 media with 10% fetal calf serum in the presence of pentamidine at the indicated concentrations. Twenty-four hours later the cells were analyzed for viability using ethidium bromide staining. A minimum of 10,000 cells were analyzed by flow cytometry on a FACSCAN analyzer.
These observations have been confirmed using microscopic analysis via trypan blue dye exclusion.

tumor necrosis factor = assay: Tumor necrosis factor secretion by rat macrophages; type: cell-based; settings: pentamidine 10^-5 M, rat macrophages (control 82 units/ml)
Description: as §1
In vitro studies were performed by taking alveolar macrophages from normal healthy rat lungs and culturing them in the presence of an imidazoline with the inducer lipopolysaccharide for 24 hours. The standard bioassay for IL-1 was performed (see above).

IL-1α [2] = assay: Western blot analysis of cell associated IL-1α; type: cell-based, rat; settings: 10 μM pentamidine, LPS, 24 h, FIG. 3
Description: To determine the effect of pentamidine on cellular stores of IL-1, intracellular levels of IL-1 were quantitated by incubating cells with and without 10 μM pentamidine and LPS for 24 hours. At the end of this incubation period, the cells were washed, lysed and the total cellular protein was collected for Western blot analysis. […] This is in agreement with the generally accepted existence of a precursor form of IL-1 with a molecular weight in the range of 31-33 kD (J. Giri et al., J. Immunol. 134, 343 (1985)).
Cells (4×10^6 cells) were oultured with pentamidine (10μM) or dexamethasone (1μM) in media with 10% fetal calf serum (FCS) in the presence or absence of LPS (1 μg/ml) for 24 hours. The cells were washed twice in HBSS and then scraped in homogenizing buffer (HBSS containing 0.1 mM EGTA, 1 mM pmsf, 10 μg/ml leupeptin, 1 KIU/ml aprotinin, pH 7.4). The cell suspension was left on ice for 10 minutes at which time the swollen cells were disrupted by sonication. The nuclei and undisrupted cells were pelleted by centrifugation at 800 rpm for 10 minutes and were discarded. The supernatant was centrifugated at 39,000 rpm for 1 hour at 4° C. After centrifugation, the supernatants containing cytosolic components of the cell was carefully removed and was used as the cytosol fraction. […] Molecular weight references were determined by running one lane with pre-stained molecular weight standards.

IL-1α [3] = assay: Western blot analysis of secreted protein (IL-1α); type: cell-based, rat; settings: LPS, FIG. 1b

In the case of `N=C(N)c1ccc(OCCCCCOc2ccc(C(=N)N)cc2)cc1` [Pentamidine, 1,5-bis(4-amidinophenoxy)pentane], the “Hypersensitivity response as measured by ear swelling” value [1] was “statistically significant (p<0.001) reduction in the hypersensitivity response”, the “Temperature response index (TRI)” value (Female B6C3F1 mice; 15 mg/kg i.v. 24 h and 1 h prior to LPS 50 mg/kg i.p. (LPS alone -13.3), P < 0.01) was -8.3 Δ°C and the Survival (Female B6C3F1 mice; 15 mg/kg i.v. + LPS, 24 hours of observation (LPS alone 0/10), P < 0.01) was 10/10. The “Mean rectal temperature at 12 hours (Tr12hr)” value (Female B6C3F1 mice; 15 mg/kg i.v. + LPS, ± SE (LPS alone 25.3 ± 0.5), P < 0.01) was 29.0 ± 2.2 °C, the “Mean rectal temperature at time zero (Tr0)” value (Female B6C3F1 mice; 15 mg/kg i.v. + LPS, ± SE (LPS alone 38.6 ± 0.4)) was 37.3 ± 0.4 °C and the “Temperature response index (TRI)” value (Female B6C3F1 mice; 15 mg/kg i.v. at 24 h and 1 h, no LPS (vehicle -1.3)) was -2.4 Δ°C. The Survival (Female B6C3F1 mice; 15 mg/kg i.v., no LPS, 24 hours of observation (vehicle 10/10)) was 9/9, the “Mean rectal temperature at 12 hours (Tr12hr)” value (Female B6C3F1 mice; 15 mg/kg i.v., no LPS, ± SE (vehicle 36.9 ± 1.4)) was 35.0 ± 2.9 °C and the “Mean rectal temperature at time zero (Tr0)” value (Female B6C3F1 mice; 15 mg/kg i.v., no LPS, ± SE (vehicle 38.2 ± 0.1)) was 37.4 ± 0.6 °C. The “Amount of bioactive membrane IL-1 (mIL-1)” value (membrane IL-1) was “increased in a dose related manner”, the inhibition at 10 µM (IL-6) was > 50% and the “Loss in cell viability” value (alveolar macrophage) was “No significant loss in cell viability”. For the same compound, the “Tumor necrosis factor secretion” value (tumor necrosis factor) was 42 units/ml, the “Cell associated IL-1α (Western blot)” value (IL-1α [2]) was “allows proper translation of the protein; also recorded: antiserum to murine IL-1α bound to a protein that migrated to approximately 31 kD” and the “Secreted IL-1 by Western blot” value (IL-1α [3]) was “nearly complete block in the release of the intracellular IL-1; also recorded: lack of a lipopolysaccharide inducible IL-1 band”.
